Starred links: 1 amine or outer side, 2 acyl side, 3 side chain; linkers in the order of their positions; H or OH if unused. Positions of bridges follow the written chain, without caps; N, C: chain ends. Residues, ends and D or L forms follow the SMILES beside them. Suc = O=C(CCC(=O)[*:2])[*:1]

For four compounds, IC50 results are on record in patent US20220340629A1, “Myosin Derived Peptides and Related Compounds with Anticoagulant Activities” (THE SCRIPPS RESEARCH INSTITUTE, priority 0001, published 2022).

The assay has as its system thrombin generation in human platelet poor plasma with skeletal muscle myosin. Briefly: Assay 2A: thrombin generation, recalcification of human platelet poor plasma + myosin. Type of assay: biochemical. The note with it: human platelet poor plasma 30%, myosin 50 nM, CaCl2 10 mmol/L; read-out: 2A (recalcification +myosin). The procedure: Activities of the various peptides and derivative compounds were also examined via assays using recalcification of human plasma. [One of] these assay format (2A) involves monitoring thrombin generation in platelet poor plasma (PPP). Specifically, pooled normal human platelet poor plasma (PPP) (obtained from George King Bio Medical Inc., Overland Park, Kans.) (30%) was incubated with skeletal muscle myosin at 50 nM in the presence of peptide in DMSO or DMSO alone for 5 min at 37° C. Then, fluorogenic thrombin substrate solution (Z-Gly-Gly-Arg-AMC) (I-1140) with CaCl2 (10 mmol/L final) alone was added to the reaction mixture (total 110 μl) to initiate coagulation. Thrombin generation was followed continuously for 25 min using SPECTRAmax GEMINI XS fluorometer (Molecular Devices, Sunnyvale, Calif.) with excitation and emission wavelengths set at 360 and 460 nm, respectively. The first derivative of fluorescence versus time was used to produce thrombin generation curves with the correction for substrate consumption and inner filter effect. For this assay 96 well plate (total 110 μL) or 384 well plates (total 30 μL) were used.
Activities obtained from Assay 2A (recalcification of human plasma in the presence of myosin) were used to rank the various peptides listed in Table 3. As noted above, this assay monitors recalcification of plasma to stimulate thrombin generation. In this assay, potency of the compounds was determined as the peptide concentration for 50% inhibition of thrombin generation, defined as “IC50”.
As for `CC[C@H](C)[C@H](NC(=O)[C@H](C)NC(=O)[C@H](CCC(=O)O)NC(=O)[C@H](CCCNC(=N)N)NC(=O)[C@H](CCCNC(=N)N)NC(=O)[C@H](CCC(=O)O)NC(=O)[C@@H]1CCCCNC(=O)CCC(=O)NCCCC[C@H](NC(=O)[C@H](C)NC(=O)[C@H](CC(C)C)NC(=O)[C@H](Cc2ccccc2)NC(=O)CNC(=O)[C@H](CCCNC(=N)N)NC(=O)[C@H](CS)NC(=O)[C@H](CCCNC(=N)N)NC(=O)[C@H](C)N)C(=O)N[C@@H](C(C)C)C(=O)N[C@@H](CCC(=O)O)C(=O)N[C@@H](Cc2ccc(O)cc2)C(=O)N[C@@H](CCC(N)=O)C(=O)N[C@@H](CCCNC(=N)N)C(=O)N[C@@H](CCSC)C(=O)N1)C(=O)N[C@@H](Cc1ccccc1)C(=O)N[C@@H](CS)C(=O)N[C@H](C(=O)N[C@@H](CCC(N)=O)C(=O)N[C@@H](Cc1ccc(O)cc1)C(=O)N[C@@H](CC(N)=O)C(=O)N[C@H](C(=O)N[C@@H](CCCNC(=N)N)C(=O)N[C@H]1CCCCNC(=O)CCC(=O)NCCCC[C@@H](C(=O)N2CCC[C@H]2C(=O)N[C@@H](Cc2c[nH]c3ccccc23)C(N)=O)NC(=O)[C@H](Cc2c[nH]cn2)NC(=O)[C@H](CCCCN)NC(=O)[C@H](C(C)C)NC(=O)[C@H](CC(N)=O)NC(=O)[C@H](CCSC)NC(=O)[C@H](Cc2ccccc2)NC1=O)[C@@H](C)CC)[C@@H](C)CC` [HC161] (H-ARCRGFLAKVEYQRMKERREAIFCIQYNIRKFMNVKHKPW-NH2; linker 9-16, 31-38 via Suc (inferred); N-terminus and C-terminus assumed), the IC50 is 6.4 µM.

On to `CC[C@H](C)[C@H](NC(=O)[C@H](C)NC(=O)[C@H](CCC(=O)O)NC(=O)[C@H](CCCNC(=N)N)NC(=O)[C@H](CCCNC(=N)N)NC(=O)[C@H](CCC(=O)O)NC(=O)[C@@H]1CCCCNC(=O)CCC(=O)NCCCC[C@@H]2NC(=O)[C@H](C)NC(=O)[C@H](CC(C)C)NC(=O)[C@H](Cc3ccccc3)NC(=O)[C@@H](NC(=O)[C@H](CCCNC(=N)N)NC(=O)[C@H](CS)NC(=O)[C@H](CCCNC(=N)N)NC(=O)[C@H](C)N)CCCCNC(=O)CCC(=O)NCCCC[C@H](NC(=O)[C@H](CCC(=O)O)NC(=O)[C@H](C(C)C)NC2=O)C(=O)N[C@@H](CCC(N)=O)C(=O)N[C@@H](CCCNC(=N)N)C(=O)N[C@@H](CCSC)C(=O)N1)C(=O)N[C@@H](Cc1ccccc1)C(=O)N[C@@H](CS)C(=O)N[C@H](C(=O)N[C@@H](CCC(N)=O)C(=O)N[C@@H](Cc1ccc(O)cc1)C(=O)N[C@@H](CC(N)=O)C(=O)N[C@H](C(=O)N[C@@H](CCCNC(=N)N)C(=O)N[C@@H](CO)C(=O)N[C@@H](Cc1ccccc1)C(=O)N[C@@H](CCSC)C(=O)N[C@@H](CC(N)=O)C(=O)N[C@H](C(=O)N[C@@H](CCCCN)C(=O)N[C@@H](Cc1c[nH]cn1)C(=O)N[C@@H](Cc1c[nH]c2ccccc12)C(=O)N1CCC[C@H]1C(=O)N[C@@H](Cc1c[nH]c2ccccc12)C(N)=O)C(C)C)[C@@H](C)CC)[C@@H](C)CC` [HC154] (H-ARCRKFLAKVEKQRMKERREAIFCIQYNIRSFMNVKHWPW-NH2; linker 5-12, 9-16 via Suc (inferred); N-terminus and C-terminus assumed), for which the IC50 was 9.4 µM.

Regarding `CC[C@H](C)[C@H](NC(=O)[C@H](C)NC(=O)[C@H](CCC(=O)O)NC(=O)[C@H](CCCNC(=N)N)NC(=O)[C@H](CCCNC(=N)N)NC(=O)[C@@H]1CCCCNC(=O)CCC(=O)NCCCC[C@@H]2NC(=O)[C@@H](NC(=O)[C@H](C)NC(=O)[C@H](CC(C)C)NC(=O)[C@H](Cc3ccccc3)NC(=O)CNC(=O)[C@H](CCCNC(=N)N)NC(=O)[C@H](CS)NC(=O)[C@H](CCCNC(=N)N)NC(=O)[C@H](C)N)CCCCNC(=O)CCC(=O)NCCCC[C@H](NC(=O)[C@H](CCSC)NC(=O)[C@H](CCCNC(=N)N)NC(=O)[C@H](CCC(N)=O)NC(=O)[C@H](Cc3ccc(O)cc3)NC(=O)[C@H](CCC(=O)O)NC2=O)C(=O)N1)C(=O)N[C@@H](Cc1ccccc1)C(=O)N[C@@H](CS)C(=O)N[C@H](C(=O)N[C@@H](CCC(N)=O)C(=O)N[C@@H](Cc1ccc(O)cc1)C(=O)N[C@@H](CC(N)=O)C(=O)N[C@H](C(=O)N[C@@H](CCCNC(=N)N)C(=O)N[C@@H](CO)C(=O)N[C@@H](Cc1ccccc1)C(=O)N[C@@H](CCSC)C(=O)N[C@@H](CC(N)=O)C(=O)N[C@H](C(=O)N[C@@H](CCCCN)C(=O)N[C@@H](Cc1c[nH]cn1)C(=O)N[C@@H](Cc1c[nH]c2ccccc12)C(=O)N1CCC[C@H]1C(=O)N[C@@H](Cc1c[nH]c2ccccc12)C(N)=O)C(C)C)[C@@H](C)CC)[C@@H](C)CC` [HC156] (H-ARCRGFLAKKEYQRMKKRREAIFCIQYNIRSFMNVKHWPW-NH2; linker 9-16, 10-17 via Suc (inferred); N-terminus and C-terminus assumed), the IC50 is 9.3 µM.

As to `CC[C@H](C)[C@H](NC(=O)[C@H](C)NC(=O)[C@H](CCC(=O)O)NC(=O)[C@H](CCCNC(=N)N)NC(=O)[C@H](CCCNC(=N)N)NC(=O)[C@H](CCC(=O)O)NC(=O)[C@@H]1CCCCNC(=O)CCC(=O)NCCCC[C@@H]2NC(=O)[C@H](C)NC(=O)[C@H](CC(C)C)NC(=O)[C@@H](NC(=O)CNC(=O)[C@H](CCCNC(=N)N)NC(=O)[C@H](CS)NC(=O)[C@H](CCCNC(=N)N)NC(=O)[C@H](C)N)CCCCNC(=O)CCC(=O)NCCCC[C@H](NC(=O)[C@H](Cc3ccc(O)cc3)NC(=O)[C@H](CCC(=O)O)NC(=O)[C@H](C(C)C)NC2=O)C(=O)N[C@@H](CCCNC(=N)N)C(=O)N[C@@H](CCSC)C(=O)N1)C(=O)N[C@@H](Cc1ccccc1)C(=O)N[C@@H](CS)C(=O)N[C@H](C(=O)N[C@@H](CCC(N)=O)C(=O)N[C@@H](Cc1ccc(O)cc1)C(=O)N[C@@H](CC(N)=O)C(=O)N[C@H](C(=O)N[C@@H](CCCNC(=N)N)C(=O)N[C@@H](CO)C(=O)N[C@@H](Cc1ccccc1)C(=O)N[C@@H](CCSC)C(=O)N[C@@H](CC(N)=O)C(=O)N[C@H](C(=O)N[C@@H](CCCCN)C(=O)N[C@@H](Cc1c[nH]cn1)C(=O)N[C@@H](Cc1c[nH]c2ccccc12)C(=O)N1CCC[C@H]1C(=O)N[C@@H](Cc1c[nH]c2ccccc12)C(N)=O)C(C)C)[C@@H](C)CC)[C@@H](C)CC` [HC155] (H-ARCRGKLAKVEYKRMKERREAIFCIQYNIRSFMNVKHWPW-NH2; linker 6-13, 9-16 via Suc (inferred); N-terminus and C-terminus assumed), the IC50 amounted to 9.5 µM.
